pIC50: −log10 of the molar value. Where “and” joins values, the source holds several entries; their conditions need not be identical. Equal values may be shown once. Calls of active or inactive are those of the source. The rule behind the calls is not given here.
How the values were obtained:
U-937 [1] = assay: Cytotoxicity against human U937 cells by trypan blue assay after 48 hrs; format: functional; details: U-937, 48 h
U-937 [2] = assay: Induction of apoptosis in human U937 cells at 250 uM after 24 hrs; format: functional
U-937 [3] = assay: Growth inhibition of human U937 cells by [3H]thymidine incorporation assay; format: functional, cell-based
U-937 [4] = assay: Effect on DNA fragmentation in human U937 cells assessed as ladder-like pattern at 2 mM after 24 hrs; format: functional, cell-based
U-937 [5] = assay: Reversal of proapoptotic effect in human U937 cells assessed as inhibition of ladder-like pattern at 250 uM in presence of 10 mM NAC added every 8 hrs for 24 hrs; format: functional, cell-based
U-937 [6] = assay: Reversal of induction of apoptosis in human U937 cells at 250 uM in presence of 10 mM NAC added every 8 hrs for 24 hrs; format: functional, cell-based
U-937 [7] = assay: Induction of DNA fragmentation in human U937 cells at 2 mM after 24 hrs; format: functional, cell-based

pIC50 (U-937 [3]; Homo sapiens, U-937)	pIC50 (U-937 [3]; u-937)	SMILES	CC50 (U-937 [1]) [µM]	Activity (U-937 [2])	Activity (U-937 [4])	Activity (U-937 [5])	Activity (U-937 [6])	Activity (U-937 [7])
< 2.70		Cc1ccc2oc(=O)cc(C)c2c1	> 2000	4.3%				
< 2.70		Cc1ccc2c(C)cc(=O)oc2c1	> 2000	5.3%				
3.82		COc1cc2ccc(=O)oc2cc1O [SCOPOLETIN]	600	6.3%	Active			
4.31		Cc1cc(=O)oc2c(O)c(O)ccc12 [4-METHYLDAPHNETIN]	165	55%		Active	Active	
4.50		O=c1ccc2cc(O)c(O)cc2o1 [ESCULETIN]	194	54.3%				Active
	< 2.70	Cc1cc(=O)oc2cc(O)ccc12 [HYMECROMONE]	> 2000	5.2% and 4.7%	Active			
< 2.70		COc1ccc2c(C)cc(=O)oc2c1 [HYMECROMONE METHYL ETHER]	> 2000	4%				
< 2.70		Cc1cc(=O)oc2c(C)cccc12	> 2000	4.6%				
< 2.70		O=c1ccc2ccccc2o1 [COUMARIN]	> 2000	2.6%				
< 2.70		O=c1oc2ccccc2cc1O [3-HYDROXYCOUMARIN]	> 2000	5.3%				
3.20		Cc1cc(=O)oc2ccc(O)cc12	> 2000	3%	Active			

From ChEMBL document CHEMBL1141556, “Structural insights into hydroxycoumarin-induced apoptosis in U-937 cells” (Bioorg Med Chem, 2008)
